Experimental data as given in patent US20260315446A1, “ANTIFUNGAL COMPOUNDS AND USES THEREOF” (priority 2023, published 2026).
In brackets after ≈: the same amount, converted by molar mass. Entries after “also recorded” stand apart in the source; their conditions may differ. Where two headings read alike, the source gives them in different places.

Legend:
[1] = tested on: Candida albicans (SC5314); assay: Broth microdilution MIC (Example 1); assay type: cell-based; conditions: in the presence of 1 μg/mL fluconazole; for MIC: Candida albicans, SC5314, read-out: MIC against Candida albicans (SC5314)
Experimental: (§1) MICs/minimum effective concentrations (MECs) were determined for each of the novel analogs against the three major human fungal pathogens, A. fumigatus, C. neoformans, and C. albicans. […] Thus, analogs of FK506 and FK520 can tolerate up to 100-fold reduction in antifungal activity and still be considered for in vivo testing. For C. neoformans, MICs were the most uniform and ranged from 0.2 to 2 μg/mL, which is between 4- and 40-fold reduced for antifungal activity.
(§2) In vitro antifungal activities of FK506, FK520, and analogs were assessed in RPMI 1640 (Sigma-Aldrich) for all strains tested. MICs/minimum effective concentrations (MECs) for each drug were measured using modified Clinical and Laboratory Standards Institute (CLSI) M38-A2 and M27-A3 standard in vitro antifungal susceptibility protocols. Broth microdilution assays for MIC/MEC assessment were performed as described previously (see, Juvvadi P R, et al., 2019, Nat Commun 10:4275). All antifungal assays with C. neoformans were performed at 37° C. Antifungal susceptibility testing for C. albicans was performed in the presence of a uniform 1 μg/mL concentration of fluconazole to sensitize the organism to calcineurin inhibition.

[2] = tested on: Cryptococcus neoformans (H99); assay: Broth microdilution MIC (Example 1); assay type: cell-based; conditions: for MIC: Cryptococcus neoformans, read-out: MIC against Cryptococcus neoformans (H99)
Experimental: as §1, §2

C. neoformans = assay: MIC assay (Example 4); assay type: cell-based, Cryptococcus neoformans; conditions: 37° C.; for MIC: Cryptococcus neoformans, read-out: C. neoformans MIC
Experimental: Both JH-FK-10 and JH-FK-11 maintained in vitro antifungal activity against C. neoformans with MICs of 0.8 and 1.6 μg/mL, respectively (Table 11).
In vitro antifungal activity of FK506, FK520, and analogs was assessed in RPMI 1640 (Sigma-Aldrich) for all strains tested. Minimum inhibitory concentrations (MIC) for each drug were measured using modified Clinical and Laboratory Standards Institute (CLSI) M38-A2 and M27-A3 standard in vitro antifungal susceptibility protocols. Broth microdilution assays for MIC assessment were performed as previously described. All antifungal assays with C. neoformans were performed at 37° C.

[3] = tested on: IL-2 expression in primary murine CD4+ T cells; assay: In vitro immunosuppressive activity, IL-2 expression (Example 1); assay type: cell-based, mouse; conditions: for IC50: Mus musculus, CD4+ T, 72 h, PMA and ionomycin stimulation, read-out: IL-2 50% inhibitory concentration (IC50)
Experimental: The potent immunosuppressive activity of FK506 and FK520 is what precludes these highly antifungal compounds from being utilized clinically to treat invasive fungal infections. Therefore, it is essential to understand the level of immunosuppressive activity for each of these analogs to determine if these C-22 modifications improve the fungal selectivity. Utilizing a primary murine T-cell model, IL-2 expression was assessed following growth in the presence of calcineurin inhibitors (FIG. 6A). Naive, primary CD4^+ T cells were collected from mice and grown for 72 h in the presence of FK506, FK520, or an analog. Following stimulation with phorbol 12-myristate 13-acetate (PMA) and ionomycin, the proportion of cells producing IL-2, a key calcineurin-dependent cytokine, was measured with flow cytometry. All compounds generated a dose-dependent reduction in IL-2 production.
Spleen and lymph nodes were collected from C57BL/6 mice and homogenized through a 40-μm filter. Pan-CD4^+ T cells were enriched using a MagniSort mouse CD4 T-cell kit (eBioscience) according to the manufacturer's protocol. Thereafter, CD4^+CD25^− CD44^loCD62L^hi naive T cells were sorted by fluorescence-activated cell sorting (FACS). The naive CD4^+ T cells were grown in Iscove's modified Dulbecco's medium (IMDM) supplemented with glutamine, penicillin, streptomycin, gentamicin, 2-mercaptoethanol, and 10% fetal bovine serum (FBS). Cells were then cultured on anti-hamster IgG-coated plates in the presence of hamster anti-CD3 epsilon and anti-CD28 antibodies (BD Biosciences), neutralizing anti-IL-4 antibody (eBioscience), recombinant IL-12 (10 ng/mL), and recombinant IL-2 (50 U/mL) for 72 h. During this period, cells were grown in the presence of 2× serially diluted FK506, FK520, or analog suspended in DMSO for 72 h. During the last 4 h of culture, phorbol 12-myristate 13-acetate (PMA; Sigma), ionomycin (Sigma), and GolgiStop (BD Biosciences) were added to the culture to facilitate detection of intracellular cytokines via flow cytometry. Live cells were stained with fluorescein isothiocyanate (FITC)-conjugated anti-CD4 antibody (eBioscience) and fixable viability dye eFluor 506 (eBioscience) on ice, followed by fixation and permeabilization using the Foxp3 transcription factor staining kit (eBioscience). Intracellular staining was performed at room temperature using phycoerythrin (PE)-conjugated anti-IL-2 antibody (eBioscience), followed by analysis with a BD LSRFortessa X-20 flow cytometer.

Aspergillus fumigatus = assay: Broth microdilution MIC/MEC (Example 1); assay type: cell-based; conditions: for minimal effective concentration: Aspergillus fumigatus, strain Af293, read-out: MEC against Aspergillus fumigatus (Af293)
Experimental: as §1
To assess the antifungal activity against other human fungal pathogens, JH-FK-05 was selected to test against a panel of pathogenic molds and drug-resistant A. fumigatus strains (Table 4). JH-FK-05 registered MECs as low as 1 μg/mL for some of these highly recalcitrant species, such as Mucor circinelloides, Rhizopus oryzae, and pan azole-resistant A. fumigatus (strain F14946).
as §2

Structure (SMILES)	MIC [1]	MIC ([2]; 37° C.)	MIC (C. neoformans; Table 11)	MIC (C. neoformans; Table 12)	MIC (C. neoformans; Table 13)	IL-2 inhibition / immunosuppression [3]	minimal effective concentration (Aspergillus fumigatus)	MIC against Candida albicans (SC5314) [1]	MIC against Cryptococcus neoformans (H99) ([2]; 37° C.)	antifungal activity (MIC/MEC range) ([2]; range over C. neoformans, C. albicans and A. fumigatus)	C. neoformans MIC (C. neoformans; Table 11)	C. neoformans MIC (C. neoformans; Table 12)	C. neoformans MIC (C. neoformans; Table 13)	IC50 [3]	fold increase of IL-2 IC50 / reduction of immunosuppression compared to FK506 ([3]; relative to FK506)	fold reduction of antifungal activity compared to FK506 ([2]; C. neoformans)	broad-spectrum antifungal activity / MIC ranking ([2]; C. neoformans, C. albicans, A. fumigatus)	MIC/MEC (Aspergillus fumigatus; echinocandin-resistant strain EMFR-S678P)
C=CCC1C=C(C)CC(C)CC(OC)C2OC(O)(C(=O)C(=O)N3CCCCC3C(=O)OC(C(C)=CC3CCC(O)C(OC)C3)C(C)C(O)CC1=O)C(C)CC2OC (stereo not drawn) [FK506, reference compound]	0.02 µg/mL	0.05 µg/mL (≈ 0.0622 µM)	0.05 µg/mL (≈ 0.0622 µM)	0.05 µg/mL (≈ 0.0622 µM)	0.05 µg/mL (≈ 0.0622 µM)	highest level of IL-2 inhibition	0.016 µg/mL											
CC[C@@H]1/C=C(\C)C[C@H](C)C[C@H](OC)[C@H]2O[C@@](O)(C(=O)C(=O)N3CCCC[C@H]3C(=O)O[C@H](/C(C)=C/[C@@H]3CC[C@@H](O)[C@H](OC)C3)[C@H](C)[C@@H](O)CC1=O)[C@H](C)C[C@@H]2OC [FK520, reference compound]						highest level of IL-2 inhibition; also recorded: slightly reduced compared to that of FK506		0.02 µg/mL	0.05 µg/mL (≈ 0.0631 µM)	0.016 to 0.05 µg/mL	0.05 µg/mL	0.05 µg/mL	0.05 µg/mL					
C=CC[C@@H]1/C=C(\C)C[C@H](C)C[C@H](OC)[C@H]2O[C@@](O)(C(=O)C(=O)N3CCCC[C@H]3C(=O)O[C@H](/C(C)=C/[C@@H]3CC[C@@H](O)[C@H](OC)C3)[C@H](C)[C@@H](O)C/C1=N/NC(=O)CC)[C@H](C)C[C@@H]2OC [JH-FK-02]	1.6 µg/mL	2 µg/mL (≈ 2.29 µM)					2 µg/mL							42.6 nM	> 380 fold			
CC[C@@H]1/C=C(\C)C[C@H](C)C[C@H](OC)[C@H]2O[C@@](O)(C(=O)C(=O)N3CCCC[C@H]3C(=O)O[C@H](/C(C)=C/[C@@H]3CC[C@@H](O)[C@H](OC)C3)[C@H](C)[C@@H](O)C/C1=N/NC(C)=O)[C@H](C)C[C@@H]2OC [JH-FK-05]	0.8 µg/mL	1 µg/mL (≈ 1.18 µM)			1 µg/mL (≈ 1.18 µM)		2 µg/mL							20 nM		20 fold	maintained high levels of broad-spectrum antifungal activity across the three species	2 µg/mL (≈ 2.36 µM)
